The values that follow are results of earlier work, collected in patent US20010001064A1, “Flow electroporation chamber and methods of use thereof” (priority 1998, published 2001).

Data set [1] addresses T1, hemoglobin (Homo sapiens, UniProt P68871+P69905). As to conditions: relative to DPG.
Data set [2] deals with T1, hemoglobin. The note with it: pH 7.4, 37 degrees C.

Bounds are passed on as bounds.

T1 sequence (P69905 2-142 limits assumed): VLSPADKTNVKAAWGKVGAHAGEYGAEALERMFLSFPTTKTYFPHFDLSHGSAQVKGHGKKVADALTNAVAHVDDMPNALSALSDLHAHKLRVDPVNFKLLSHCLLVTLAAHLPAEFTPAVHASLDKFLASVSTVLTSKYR
T1 sequence (P68871 2-147 limits assumed): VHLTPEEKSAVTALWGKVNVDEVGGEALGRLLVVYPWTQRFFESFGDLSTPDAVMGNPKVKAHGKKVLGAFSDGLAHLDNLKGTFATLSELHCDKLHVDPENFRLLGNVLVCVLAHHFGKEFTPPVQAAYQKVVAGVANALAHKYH

For `O=P(O)(O)O[C@H]1[C@H](OP(=O)(O)O)[C@@H](OP(=O)(O)O)[C@H](OP(=O)(O)O)[C@@H](OP(=O)(O)O)[C@H]1OP(=O)(O)O` [IHP, inositol hexaphosphate], the “affinity to hemoglobin, higher than DPG” value in data set [1] is reported as 1000 fold. Besides, the P50 of hemoglobin in data set [2] was not above 96.4 mm Hg.
